Experimental data as given in patent publication US20260274814A1, “THIENYL COMPOUNDS FOR THE TREATMENT OF A CENTRAL NERVOUS SYSTEM DISEASE OR DISORDER” (Coreterra Therapeutics, Inc., priority 2023, published 2026).
Where a name gives a salt, the structure may show the parent alone.

System: mice
Assay: Neuropharmacological Assay (SmartCube): automated behavioral signature of compound-treated mice compared with a database of reference drug classes
Type: in vivo
Settings: for AG / AN / AP / AX / CE / HL / MS / PS / SH / AD / UK: SmartCube class probability, 3.0 mg/kg i.p., 15 min before test; for MED / minimal effective dose: minimal effective dose: dose having 45% or more total activity in SmartCube, i.p., if only one dose tested, that dose is shown; for minimal effective dose: Mus musculus, ip, read-out: MED
Procedure, shortened: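 Compounds in N-methyl-2-pyrrolidone/polyethylene glycol/propylene glycol were given i.p. 15 min before testing, at 3 doses; values shown are for 3.0 mg/kg. Video-captured behaviour was matched by algorithm against reference drug classes, giving a probability per class. MED: lowest dose reaching ≥45% total activity.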

| SMILES | AG | AN | AP | AX | CE | HL | MS | PS | SH | AD (hydrochloride, 3 mg/kg) | UK (hydrochloride, 3 mg/kg) | MED | minimal effective dose | AD | UK (dihydrochloride, 3 mg/kg) | UK | MED (hydrochloride) | AP (hydrochloride, 3 mg/kg) | AX (hydrochloride, 3 mg/kg) |
| --- | --- | --- | --- | --- | --- | --- | --- | --- | --- | --- | --- | --- | --- | --- | --- | --- | --- | --- | --- |
| CNC1CCc2c(C(F)(F)F)csc2C1 (single isomer, unassigned) [Compound 231, N-methyl-3-(trifluoromethyl)-4,5,6,7-tetrahydrobenzothiophen-6-amine hydrochloride] | ND (^ <4%) | ND (^ <4%) | ND (^ <4%) | ND (^ <4%) | ND (^ <4%) | ND (^ <4%) | ND (^ <4%) | ND (^ <4%) | ND (^ <4%) | ND (^ <4%) | +++ (≥49%) | 3 mpk |  |  |  |  |  |  |  |
| CNC1CCc2scc(-c3ccccc3)c2C1 (single isomer, unassigned) [Compound 232, N-methyl-3-phenyl-4,5,6,7-tetrahydrobenzothiophen-5-amine hydrochloride] | ND (^ <4%) | ND (^ <4%) | ND (^ <4%) | ND (^ <4%) | ND (^ <4%) | ND (^ <4%) | ND (^ <4%) | ND (^ <4%) | ND (^ <4%) |  | + (≥4%) |  | > 3 mg/kg | ND (^ <4%) |  |  |  |  |  |
| CNC1CCc2scc(-c3ccccc3)c2C1 (single isomer, unassigned) [Compound 233, N-methyl-3-phenyl-4,5,6,7-tetrahydrobenzothiophen-5-amine hydrochloride] | ND (^ <4%) | ND (^ <4%) | ND (^ <4%) | ND (^ <4%) | ND (^ <4%) | ND (^ <4%) | ND (^ <4%) | ND (^ <4%) | ND (^ <4%) |  | ND (^ <4%) | >3 mpk |  | ND (^ <4%) |  |  |  |  |  |
| CNC1CCc2scc(CN)c2C1 (single isomer, unassigned) [Compound 236, 3-(aminomethyl)-N-methyl-4,5,6,7-tetrahydrobenzothiophen-5-amine dihydrochloride] | ND (^ <4%) | ND (^ <4%) | ND (^ <4%) | ND (^ <4%) | ND (^ <4%) | ND (^ <4%) | ND (^ <4%) | ND (^ <4%) | ND (^ <4%) |  |  |  | > 3 mg/kg | ND (^ <4%) | ND (^ <4%) |  |  |  |  |
| CNC1CCc2scc(CN)c2C1 (single isomer, unassigned) [Compound 237, 3-(aminomethyl)-N-methyl-4,5,6,7-tetrahydrobenzothiophen-5-amine dihydrochloride] | ND (^ <4%) | ND (^ <4%) | ND (^ <4%) | ND (^ <4%) | ND (^ <4%) | ND (^ <4%) | ND (^ <4%) | ND (^ <4%) | ND (^ <4%) |  |  | >3 mpk |  | ND (^ <4%) | + (≥4%) |  |  |  |  |
| CC1(N)CCc2c(C(F)(F)F)csc2C1.Cl (single isomer, unassigned) [Compound 241, 6-methyl-3-(trifluoromethyl)-5,7-dihydro-4H-benzothiophen-6-amine hydrochloride] | ND (^ <4%) | ND (^ <4%) | ND (^ <4%) | ND (^ <4%) | ND (^ <4%) | ND (^ <4%) | ND (^ <4%) | ND (^ <4%) | ND (^ <4%) | + (≥4%) | ++++ (≥74%) |  | 3 mg/kg |  |  |  |  |  |  |
| CC1(N)CCc2c(C(F)(F)F)csc2C1.Cl (single isomer, unassigned) [Compound 242, 6-methyl-3-(trifluoromethyl)-5,7-dihydro-4H-benzothiophen-6-amine hydrochloride] | ND (^ <4%) | ND (^ <4%) | ND (^ <4%) | ND (^ <4%) | ND (^ <4%) | ND (^ <4%) | ND (^ <4%) | ND (^ <4%) | ND (^ <4%) | +++ (≥49%) | ND (^ <4%) | 3 mpk |  |  |  |  |  |  |  |
| NC1CCc2c(C(F)(F)F)csc2C1 (single isomer, unassigned) [Compound 243, 3-(trifluoromethyl)-4,5,6,7-tetrahydrobenzothiophen-6-amine hydrochloride] | ND (^ <4%) | ND (^ <4%) | ND (^ <4%) | ND (^ <4%) | ND (^ <4%) | ND (^ <4%) | ND (^ <4%) | ND (^ <4%) | ND (^ <4%) | ++ (≥24%) |  |  | 3 mg/kg |  |  | ND (^ <4%) |  |  |  |
| NC1CCc2c(C(F)(F)F)csc2C1 (single isomer, unassigned) [Compound 244, 3-(trifluoromethyl)-4,5,6,7-tetrahydrobenzothiophen-6-amine hydrochloride] | ND (^ <4%) | ND (^ <4%) | ND (^ <4%) | ND (^ <4%) | ND (^ <4%) | ND (^ <4%) | ND (^ <4%) | ND (^ <4%) | ND (^ <4%) | ++++ (≥74%) |  |  |  |  |  | ND (^ <4%) | <3 mpk |  |  |
| CNC1(C)CCc2cc(C(F)(F)F)sc2C1.Cl (single isomer, unassigned) [Compound 245, N, 6-dimethyl-2-(trifluoromethyl)-5,7-dihydro-4H-benzothiophen-6-amine hydrochloride] | ND (^ <4%) | ND (^ <4%) |  | ND (^ <4%) | ND (^ <4%) | ND (^ <4%) | ND (^ <4%) | ND (^ <4%) | ND (^ <4%) | ++ (≥24%) | + (≥4%) |  | 3 mg/kg |  |  |  |  | ND (^ <4%) |  |
| CNC1(C)CCc2cc(C(F)(F)F)sc2C1.Cl (single isomer, unassigned) [Compound 246, N, 6-dimethyl-2-(trifluoromethyl)-5,7-dihydro-4H-benzothiophen-6-amine hydrochloride] | ND (^ <4%) | ND (^ <4%) |  | ND (^ <4%) | ND (^ <4%) | ND (^ <4%) | ND (^ <4%) | ND (^ <4%) | ND (^ <4%) | + (≥4%) | ++ (≥24%) | 3 mpk |  |  |  |  |  | ++ (≥24%) |  |
| CNC1CCc2scc(C3CC3)c2C1 (single isomer, unassigned) [Compound 249, 3-cyclopropyl-N-methyl-4,5,6,7-tetrahydrobenzothiophen-5-amine hydrochloride] | ND (^ <4%) | ND (^ <4%) |  |  | ND (^ <4%) | ND (^ <4%) | ND (^ <4%) | ND (^ <4%) | ND (^ <4%) |  | ++ (≥24%) |  | 3 mg/kg | ND (^ <4%) |  |  |  | ND (^ <4%) | ND (^ <4%) |
